Structures can show the parent of a compound that is named as a salt. Where two headings read alike, the source gives them in different places.
Tests used:
Format in all cases: biochemical
[1] = target: T1, human JAK3 (a.a. 781-1124) (Homo sapiens, UniProt P52333); assay: In vitro JAK kinase assay (HTRF, phosphorylation of a biotinylated peptide), JAK3
T1 construct: JAK3 (a.a. 781-1124); His tag (N); made in house; host or cells: insect cells (baculovirus)
Method in brief: (§1)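 Kinase activity was measured as phosphorylation of a biotinylated peptide, with ATP at 90 μM for JAK1, 30 μM for JAK2 and 3 μM for JAK3. Reactions ran 1 hr at room temperature, were stopped with EDTA plus SA-APC and Eu-Py20, and were read by HTRF after 40 minutes of antibody binding.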

[2] = target: T2, Recombinant Human Anaplastic Lymphoma Kinase (Homo sapiens, UniProt Q9UM73); assay: ALK HTRF kinase assay
T2 construct: purchased Invitrogen, Carlsbad, Calif
T2 sequence (Q9UM73 19-1620): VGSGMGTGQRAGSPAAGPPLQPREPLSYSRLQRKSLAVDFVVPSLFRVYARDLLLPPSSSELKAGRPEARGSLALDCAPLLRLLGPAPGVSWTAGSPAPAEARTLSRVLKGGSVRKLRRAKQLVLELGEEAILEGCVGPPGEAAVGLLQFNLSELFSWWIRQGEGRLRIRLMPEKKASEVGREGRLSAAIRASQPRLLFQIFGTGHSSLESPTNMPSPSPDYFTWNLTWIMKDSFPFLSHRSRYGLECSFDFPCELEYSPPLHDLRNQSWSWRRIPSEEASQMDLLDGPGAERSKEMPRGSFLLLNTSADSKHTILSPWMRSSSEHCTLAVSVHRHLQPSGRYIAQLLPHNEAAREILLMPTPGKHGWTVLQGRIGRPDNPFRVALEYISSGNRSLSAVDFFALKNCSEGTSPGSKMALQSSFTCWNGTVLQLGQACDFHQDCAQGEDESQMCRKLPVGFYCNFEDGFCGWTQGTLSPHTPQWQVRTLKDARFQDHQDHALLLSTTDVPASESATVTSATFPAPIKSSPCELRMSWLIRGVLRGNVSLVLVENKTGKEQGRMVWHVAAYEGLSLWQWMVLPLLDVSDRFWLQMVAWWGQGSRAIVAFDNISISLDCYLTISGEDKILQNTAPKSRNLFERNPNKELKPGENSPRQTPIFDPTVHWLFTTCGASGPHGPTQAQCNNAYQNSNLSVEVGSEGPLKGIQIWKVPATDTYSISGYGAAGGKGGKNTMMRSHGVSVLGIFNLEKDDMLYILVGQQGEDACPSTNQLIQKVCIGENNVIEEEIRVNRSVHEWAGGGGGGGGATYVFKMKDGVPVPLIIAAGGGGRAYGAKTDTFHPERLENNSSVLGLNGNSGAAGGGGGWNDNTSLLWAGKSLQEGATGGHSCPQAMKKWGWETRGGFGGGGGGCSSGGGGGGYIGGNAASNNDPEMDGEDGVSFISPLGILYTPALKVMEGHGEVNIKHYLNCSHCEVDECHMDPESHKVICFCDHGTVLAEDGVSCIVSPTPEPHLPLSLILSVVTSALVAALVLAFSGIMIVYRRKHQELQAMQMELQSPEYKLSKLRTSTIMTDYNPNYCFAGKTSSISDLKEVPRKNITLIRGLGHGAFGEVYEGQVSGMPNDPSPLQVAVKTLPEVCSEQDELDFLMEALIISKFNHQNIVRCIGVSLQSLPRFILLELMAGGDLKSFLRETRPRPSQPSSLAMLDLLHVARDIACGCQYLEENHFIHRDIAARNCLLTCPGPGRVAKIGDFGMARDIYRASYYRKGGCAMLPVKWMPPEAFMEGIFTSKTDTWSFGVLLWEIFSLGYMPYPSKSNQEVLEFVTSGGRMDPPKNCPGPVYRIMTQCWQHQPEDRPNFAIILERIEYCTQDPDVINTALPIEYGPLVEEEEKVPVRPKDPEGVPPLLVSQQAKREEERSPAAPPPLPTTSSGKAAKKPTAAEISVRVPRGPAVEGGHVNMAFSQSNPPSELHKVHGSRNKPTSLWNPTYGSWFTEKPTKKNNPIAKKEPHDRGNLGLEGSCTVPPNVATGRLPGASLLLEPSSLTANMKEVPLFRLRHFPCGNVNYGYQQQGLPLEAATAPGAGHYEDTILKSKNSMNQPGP
Method in brief: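 Recombinant human ALK phosphorylated a biotinylated synthetic peptide. Phosphotyrosine was detected by TR-FRET between a Eu-labelled anti-phosphotyrosine antibody and streptavidin-allophycocyanin. IC50 values came from fitting signal against inhibitor concentration to a four-parameter logistic equation with variable Hill slope.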

[3] = target: T3, human JAK1 (a.a. 837-1142) (Homo sapiens, UniProt P23458); assay: In vitro JAK kinase assay (HTRF, phosphorylation of a biotinylated peptide), JAK1; settings: read-out: JAK1 IC50
T3 construct: human JAK1 (a.a. 837-1142); His tag (N); made in house; host or cells: insect cells (baculovirus)
T3 sequence (P23458 849-1154): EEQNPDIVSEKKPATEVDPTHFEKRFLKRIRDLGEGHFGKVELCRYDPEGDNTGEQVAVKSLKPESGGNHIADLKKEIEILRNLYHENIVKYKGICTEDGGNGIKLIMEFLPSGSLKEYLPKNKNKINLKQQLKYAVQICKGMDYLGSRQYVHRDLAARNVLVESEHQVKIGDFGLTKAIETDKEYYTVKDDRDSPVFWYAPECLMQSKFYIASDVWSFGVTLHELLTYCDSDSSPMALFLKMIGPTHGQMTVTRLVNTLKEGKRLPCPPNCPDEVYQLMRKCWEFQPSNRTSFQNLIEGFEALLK
Method in brief: as §1

TYK2 = TYK2 (Homo sapiens, UniProt P29597); assay: TYK2 kinase inhibition (Table A1)
TYK2, sequence (P29597 whole entry): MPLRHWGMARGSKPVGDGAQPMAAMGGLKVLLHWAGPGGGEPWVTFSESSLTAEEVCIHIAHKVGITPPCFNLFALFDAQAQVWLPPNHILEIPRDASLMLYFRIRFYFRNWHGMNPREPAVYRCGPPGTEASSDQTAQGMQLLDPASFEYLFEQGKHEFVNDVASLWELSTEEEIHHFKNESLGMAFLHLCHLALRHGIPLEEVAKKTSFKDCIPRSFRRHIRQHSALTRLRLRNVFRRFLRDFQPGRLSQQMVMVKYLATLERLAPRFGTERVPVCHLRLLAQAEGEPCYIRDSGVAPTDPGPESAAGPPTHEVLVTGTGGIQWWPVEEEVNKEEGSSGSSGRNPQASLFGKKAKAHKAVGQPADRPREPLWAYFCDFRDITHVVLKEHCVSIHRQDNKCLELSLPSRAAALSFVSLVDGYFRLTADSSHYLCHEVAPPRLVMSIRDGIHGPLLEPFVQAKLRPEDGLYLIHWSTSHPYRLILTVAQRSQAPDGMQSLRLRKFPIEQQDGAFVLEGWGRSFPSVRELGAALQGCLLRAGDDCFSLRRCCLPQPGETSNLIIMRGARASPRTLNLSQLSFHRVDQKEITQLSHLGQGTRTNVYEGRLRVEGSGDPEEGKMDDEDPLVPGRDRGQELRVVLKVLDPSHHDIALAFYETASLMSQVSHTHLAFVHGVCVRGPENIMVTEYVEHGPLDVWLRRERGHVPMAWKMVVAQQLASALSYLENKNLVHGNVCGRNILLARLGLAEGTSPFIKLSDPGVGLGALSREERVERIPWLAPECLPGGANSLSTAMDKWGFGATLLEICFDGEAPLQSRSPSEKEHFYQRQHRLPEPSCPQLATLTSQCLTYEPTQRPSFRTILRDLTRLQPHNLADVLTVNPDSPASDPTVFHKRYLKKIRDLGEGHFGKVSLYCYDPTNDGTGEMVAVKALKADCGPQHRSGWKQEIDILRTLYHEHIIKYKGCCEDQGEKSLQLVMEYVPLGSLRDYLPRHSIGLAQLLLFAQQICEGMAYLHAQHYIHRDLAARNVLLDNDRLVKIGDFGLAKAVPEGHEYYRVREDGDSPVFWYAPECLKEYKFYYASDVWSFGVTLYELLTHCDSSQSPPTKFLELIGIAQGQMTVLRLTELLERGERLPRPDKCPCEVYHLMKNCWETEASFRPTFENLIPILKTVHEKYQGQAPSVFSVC

[4] = target: T4, human JAK2 (a.a. 828-1132) (Homo sapiens, UniProt O60674); assay: In vitro JAK kinase assay (HTRF, phosphorylation of a biotinylated peptide), JAK2
T4 construct: JAK2 (a.a. 828-1132); His tag (N); made in house; host or cells: insect cells (baculovirus)
T4 sequence (O60674 828-1132): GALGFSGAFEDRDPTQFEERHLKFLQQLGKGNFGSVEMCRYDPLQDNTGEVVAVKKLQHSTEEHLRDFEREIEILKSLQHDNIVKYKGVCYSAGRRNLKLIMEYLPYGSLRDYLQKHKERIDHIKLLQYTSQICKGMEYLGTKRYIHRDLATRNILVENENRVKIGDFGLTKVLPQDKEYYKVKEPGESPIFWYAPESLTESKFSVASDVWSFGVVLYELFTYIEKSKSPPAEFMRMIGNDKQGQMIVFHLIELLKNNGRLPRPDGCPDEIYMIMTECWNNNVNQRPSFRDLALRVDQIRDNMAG
Method in brief: as §1

[5] = compound at a concentration of 500 nM or 1 mM (not specified), cells shown as percentage
[6] = Table B1, cells without percent sign
[7] = method AA1 (3 μM ATP) or AA2 (1000 μM ATP), not stated per value
[8] = compound at 500 nM or 1 mM, 90 μM ATP
[9] = method AA1 (90 μM ATP) or AA2 (1000 μM ATP), not stated per value
[10] = method AA1 (30 μM ATP) or AA2 (1000 μM ATP), not stated per value

T1 sequence (P52333 781-1124): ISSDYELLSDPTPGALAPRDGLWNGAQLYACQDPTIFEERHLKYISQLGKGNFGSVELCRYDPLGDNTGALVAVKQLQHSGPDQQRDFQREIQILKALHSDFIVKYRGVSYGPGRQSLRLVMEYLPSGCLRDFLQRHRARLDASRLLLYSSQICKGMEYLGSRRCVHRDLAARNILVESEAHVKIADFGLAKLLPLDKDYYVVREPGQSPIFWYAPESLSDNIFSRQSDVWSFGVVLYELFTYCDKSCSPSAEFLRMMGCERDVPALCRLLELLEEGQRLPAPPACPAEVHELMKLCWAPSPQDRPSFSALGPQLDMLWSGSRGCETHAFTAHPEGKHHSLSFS

For `CN(Cc1ccc2cc1CCc1cncc(c1)Nc1ncc(Cl)c(n1)N2)C(=O)C1CCN(C(=O)Nc2ccccc2)CC1` [Example B337, N(4)-{[6-chloro-2,4,8,18,22-pentaazatetracyclo[14.3.1.1(3,7).1(9,13)]docosa-1(20),3(22),4,6,9(21),10,12,16,18-nonaen-12-yl]methyl}-N(4)-methyl-N(1)-phenylpiperidine-1,4-dicarboxamide bis(trifluoroacetate)], the IC50 ([1]; Table B1) was over 200 nM, the “ALK % of inhibition at a concentration of 500 nM or 1 mM” value (“ALK % of inhibition” for short) ([2]; percentage inhibition of the example compound at a concentration of 500 nM or 1 mM (not specified which)) was 21% and the IC50 ([3]; Table B1) was 41 nM. It also gave an IC50 (TYK2; Table B1) of over 200 nM and an IC50 ([4]; Table B1) of 171 nM.

Compound `O=S1(=O)Nc2cccc(c2)Nc2ncc(Cl)c(n2)Nc2cccc1c2` [Example C7, 6-Chloro-14-thia-2,4,8,15,22-pentaazatetracyclo[14.3.1.1(3,7).1(9,13)]docosa-1(20),3(22),4,6,9(21),10,12,16,18-nonaene 14,14-dioxide trifluoroacetate] has an IC50 [1] of 82 nM, an IC50 [2] of 1900 nM and an IC50 [3] of 63 nM. For the same compound, the IC50 (TYK2) was 32 nM and the IC50 [4] was 36 nM.

In the case of `Cc1csc(NC(=O)Nc2ccc3cc2CCc2cccc(c2)Nc2ncc(Cl)c(n2)N3)n1` [Example B249, N-[6-Chloro-2,4,8,22-tetraazatetracyclo[14.3.1.1(3,7).1(9,13)]docosa-1(20),3(22),4,6,9(21),10,12,16,18-nonaen-12-yl]-N′-(4-methyl-1,3-thiazol-2-yl)ureatrifluoroacetate], the IC50 ([1]; Table B1) is reported as 103 nM, the “ALK % of inhibition” value [2, 5] is reported as 35% and the IC50 ([3]; Table B1) is reported as 6 nM. The IC50 (TYK2; Table B1) was 30 nM and the IC50 ([4]; Table B1) was 8.6 nM.

Work on `O=C(Nc1ccc2cc1CCc1cccc(c1)Nc1ncc(Cl)c(n1)N2)c1ccncc1` [Example B39, N-[6-Chloro-2,4,8,22-tetraazatetracyclo[14.3.1.1(3,7).1(9,13)]docosa-1(20), 3(22),4,6,9(21),10,12,16,18-nonaen-12-yl]isonicotinamide bis(trifluoroacetate)] yielded an IC50 ([1]; Table B1) of 2.7 nM, an IC50 [2, 6] of 86 nM and an IC50 ([3]; Table B1) of 0.2 nM. For the same compound, the IC50 (TYK2; Table B1) was 0.66 nM and the IC50 ([4]; Table B1) was 0.12 nM.

With `CC(C)C(=O)Nc1ccc2cc1CCc1cccc(c1)Nc1ncc(Cl)c(n1)N2` [Example B55, N-[6-Chloro-2,4,8,22-tetraazatetracyclo[14.3.1.1(3,7).1(9,13)]docosa-1(20), 3(22),4,6,9(21),10,12,16,18-nonaen-12-yl]-2-methylpropanamide trifluoroacetate] the IC50 ([1]; Table B1) was 1.1 nM, the IC50 [2, 6] was 930 nM and the IC50 ([3]; Table B1) was 12 nM. It also gave an IC50 (TYK2; Table B1) of 23 nM and an IC50 ([4]; Table B1) of 2.7 nM.

`O=C1NCc2cccc(c2)Nc2nc(ncc2Cl)Nc2cccc1c2` [Example C5, 6-Chloro-2,4,8,15,23-pentaazatetracyclo[15.3.1.1(3,7).1(9,13)]tricosa-1(21),3(23),4,6,9(22),10,12,17,19-nonaen-16-one hydrochloride] gave an IC50 [1] of over 1000 nM, an IC50 [2] of over 1000 nM and an IC50 [3] of over 1000 nM. The IC50 (TYK2) was over 1000 nM and the IC50 [4] was over 1000 nM.

For `O=C(Nc1ccc2cc1CCc1cccc(c1)Nc1ncc(Cl)c(n1)N2)Nc1cccc2ccccc12` [Example B124, N-[6-Chloro-2,4,8,22-tetraazatetracyclo[14.3.1.1(3,7).1(9,13)]docosa-1(20),3(22),4,6,9(21),10,12,16,18-nonaen-12-yl]-N′-1-naphthylurea trifluoroacetate], the IC50 ([1]; Table B1) was 33 nM, the “ALK % of inhibition” value [2, 5] was 17% and the IC50 ([3]; Table B1) was 3.9 nM. For the same compound, the IC50 (TYK2; Table B1) was 13 nM and the IC50 ([4]; Table B1) was 4.6 nM.

In the case of `O=C(Nc1ccc2cc1CCc1cccc(c1)Nc1ncc(Cl)c(n1)N2)c1ccccn1` [Example B37, N-[6-Chloro-2,4,8,22-tetraazatetracyclo[14.3.1.1(3,7).1(9,13)]docosa-1(20), 3(22),4,6,9(21),10,12,16,18-nonaen-12-yl]pyridine-2-carboxamide bis(trifluoroacetate)], the IC50 ([1]; Table B1) is reported as 87 nM, the IC50 [2, 6] is reported as over 10000 nM and the IC50 ([3]; Table B1) is reported as 7.6 nM. It also gave an IC50 (TYK2; Table B1) of 21 nM and an IC50 ([4]; Table B1) of 8.3 nM.

`CC(C)(C)NC(=O)N1CCC(CC(=O)Nc2ccc3cc2CCc2cncc(c2)Nc2ncc(Cl)c(n2)N3)CC1` [Example A113, N-(tert-Butyl)-4-(2-{[6-chloro-2,4,8,18,22-pentaazatetracyclo[14.3.1.1(3,7).1(9,13)]docosa-1(20),3(22),4,6,9(21),10,12,16,18-nonaen-12-yl]amino}-2-oxoethyl)piperidine-1-carboxamide bis(trifluoroacetate)] was tested, and the IC50 [1, 7] was 238 nM, the “ALK % of inhibition” value [2, 8] was 14% and the IC50 [3, 9] was 17 nM. The IC50 (TYK2) was 61 nM and the IC50 [4, 10] was 54 nM.

In the case of `CC(C)(C)OC(=O)N1CCN(CCNC(=O)Nc2ccc3cc2CCc2cccc(c2)Nc2ncc(Cl)c(n2)N3)CC1` [Example B259, tert-Butyl 4-{2-[({[6-chloro-2,4,8,22-tetraazatetracyclo[14.3.1.1(3,7).1(9,13)]docosa-1(20),3(22),4,6,9(21),10,12,16,18-nonaen-12-yl]amino}carbonyl)amino]ethyl}piperazine-1-carboxylate], the IC50 ([1]; Table B1) is reported as 52 nM, the “ALK % of inhibition” value [2, 5] is reported as 13% and the IC50 ([3]; Table B1) is reported as 3.8 nM. It also gave an IC50 (TYK2; Table B1) of 23 nM and an IC50 ([4]; Table B1) of 7 nM.

`Cc1csc(NC(=O)Nc2ccc3cc2CCc2cccc(c2)Nc2ncc(Cl)c(n2)N3)c1` [Example B120, N-[6-Chloro-2,4,8,22-tetraazatetracyclo[14.3.1.1(3,7).1(9,13)]docosa-1(20), 3(22),4,6,9(21),10,12,16,18-nonaen-12-yl]-N′-(4-methyl-2-thienyl)urea trifluoroacetate] was tested, and the IC50 ([1]; Table B1) was 68 nM, the “ALK % of inhibition” value [2, 5] was 16% and the IC50 ([3]; Table B1) was 6.7 nM. It also gave an IC50 (TYK2; Table B1) of 25 nM and an IC50 ([4]; Table B1) of 7.9 nM.

With `Clc1cnc2nc1Nc1ccc(OC3CCCC3)c(c1)CCc1cccc(c1)N2` [Example A14, 6-Chloro-12-(cyclopentyloxy)-2,4,8,22-tetraazatetracyclo[14.3.1.1(3,7).1(9,13)]docosa-1(20),3(22),4,6,9(21),10,12,16,18-nonaene trifluoroacetate] the IC50 [1, 7] was 144 nM, the “ALK % of inhibition” value [2, 8] was 0% and the IC50 [3, 9] was 74 nM. For the same compound, the IC50 (TYK2) was 116 nM and the IC50 [4, 10] was 42 nM.

`O=C(Nc1ccccc1)N1CCN(c2cc(-c3cc4cc(c3)Nc3ncc(Cl)c(n3)Nc3cccc(c3)OCC4)ccn2)CC1` [Example D44, 4-{4-[6-Chloro-14-oxa-2,4,8,23-tetraazatetracyclo[15.3.1.1(3,7).1(9,13)]tricosa-1(21),3(23),4,6,9(22),10,12,17,19-nonaen-19-yl]pyridin-2-yl}-N-phenylpiperazine-1-carboxamide bis(trifluoroacetate)] was tested, and the IC50 ([1]; Table D1) was 18 nM, the IC50 ([2]; Table D1, 90 μM ATP) was 480 nM and the IC50 ([3]; Table D1) was 2.6 nM. For the same compound, the IC50 (TYK2; Table D1) was 15 nM and the IC50 ([4]; Table D1) was 1.5 nM.

With `N#Cc1c(Cl)cccc1N1CCC(CC(=O)Nc2ccc3cc2CCc2cncc(c2)Nc2ncc(Cl)c(n2)N3)CC1` [Example A222, 2-[1-(3-Chloro-2-cyanophenyl)piperidin-4-yl]-N-[6-chloro-2,4,8,18,22-pentaazatetracyclo[14.3.1.1(3,7).1(9,13)]docosa-1(20),3(22),4,6,9(21),10,12,16,18-nonaen-12-yl]acetamide tris(trifluoroacetate)] the IC50 [1, 7] was over 200 nM, the “ALK % of inhibition” value [2, 8] was 5.6% and the IC50 [3, 9] was 3.2 nM. It also gave an IC50 (TYK2) of over 200 nM and an IC50 [4, 10] of over 200 nM.

`CS(=O)(=O)N1CCC(NC(=O)Nc2ccc3cc2CCc2cccc(c2)Nc2ncc(Cl)c(n2)N3)CC1` [Example B182, N-[6-Chloro-2,4,8,22-tetraazatetracyclo[14.3.1.1(3,7).1(9,13)]docosa-1(20),3(22),4,6,9(21),10,12,16,18-nonaen-12-yl]-N′-[1-(methylsulfonyl)piperidin-4-yl]urea trifluoroacetate] was tested, and the IC50 ([1]; Table B1) was 44 nM, the “ALK % of inhibition” value [2, 5] was 29% and the IC50 ([3]; Table B1) was 1.2 nM. For the same compound, the IC50 (TYK2; Table B1) was 17 nM and the IC50 ([4]; Table B1) was 6.2 nM.

For `O=C(NCCNC(=O)c1ccccn1)Nc1ccc2cc1CCc1cccc(c1)Nc1ncc(Cl)c(n1)N2` [Example B190, N-{2-[({[6-Chloro-2,4,8,22-tetraazatetracyclo[14.3.1.1(3,7).1(9,13)]docosa-1(20),3(22),4,6,9(21),10,12,16,18-nonaen-12-yl]amino}carbonyl)amino]ethyl}pyridine-2-carboxamide trifluoroacetate], the IC50 ([1]; Table B1) was 61 nM, the “ALK % of inhibition” value [2, 5] was 11% and the IC50 ([3]; Table B1) was 5 nM. For the same compound, the IC50 (TYK2; Table B1) was 19 nM and the IC50 ([4]; Table B1) was 10 nM.

Compound `O=C(Nc1ccc2cc1CCc1cccc(c1)Nc1ncc(Cl)c(n1)N2)C1CCC1` [Example B57, N-[6-Chloro-2,4,8,22-tetraazatetracyclo[14.3.1.1(3,7).1(9,13)]docosa-1(20), 3(22),4,6,9(21),10,12,16,18-nonaen-12-yl]cyclobutanecarboxamide hydrochloride] has an IC50 ([1]; Table B1) of 18 nM, an IC50 [2, 6] of 2200 nM and an IC50 ([3]; Table B1) of 12 nM. The IC50 (TYK2; Table B1) was 39 nM and the IC50 ([4]; Table B1) was 5.3 nM.

Source: patent US8871753B2, “Macrocyclic compounds and their use as kinase inhibitors” (Incyte Corporation, priority 2008, dated 2014)
